System: Weibliche Laborratten
Assay: Rat feeding trial (relative weight gain versus untreated control)
Assay type: in vivo, Laborratten vom Typ SPF Wistar
Settings: female SPF Wistar rats 90-110 g, 100 ppm active substance in feed ad lib, 13 days, relative to untreated control
From the text: Weibliche Laborratten 90-110 g schwer vom Typ SPF Wistar (Züchtung Hagemann) werden ad lib mit Standard Rattenfutter, das mit der gewünschten Menge Wirkstoff versetzt ist, gefüttert. Jeder Versuchsansatz wird mit Futter der identischen Charge durchgeführt, so daß Unterschiede in der Zusammensetzung des Futters die Vergleichbarkeit der Ergebnisse nicht beeinträchtigen können.
Die Ratten erhalten Wasser ad lib.
Jeweils 12 Ratten bilden eine Versuchsgruppe und werden mit Futter, das mit der gewünschten Menge Wirkstoff versetzt ist, gefüttert. Eine Kontrollgruppe erhält Futter ohne Wirkstoff. Die Versuchsgruppen werden so zusammengestellt, daß das durchschnittliche Körpergewicht sowie die Streuung in den Körpergewichten der Ratten in jeder Versuchsgruppe gleich ist, so daß eine Vergleichbarkeit der Versuchsgruppen untereinander gewährleistet ist.
Die Tiere werden vor Versuchsbeginn 2 Tage an die neuen Haltungsbedingungen adaptiert, während dieser Zeit wird Futter ohne Wirkstoffzusatz gegeben. Danach erhalten die Tiere 13 Tage lang Futter, das Wirkstoff enthält. Es wird die relative Gewichtszunahme im Verhältnis zur unbehandelten Kontrolle bestimmt.

CC(C)(C)NCC(O)c1cnc(N)nc1 (stereo not shown) [compound 1, 1-(2-Amino-5-pyrimidinyl)-2-(tert.-butylamino)-ethanol]
relative Gewichtszunahme: 30%

— patent EP0325131A2, “Pyrimidine derivatives as performance stimulating agents” (BAYER AG, priority 1988, dated 1989)
